From publication PMC10779116, “Madurastatins with Imidazolidinone Rings: Natural Products or Side-Reaction Products from Extraction Solvents?” (International Journal of Molecular Sciences, 2023) come the findings set out here.

The subject of data set [1] is L. donovani MHOM/ET/67/HU3. Briefly: Antiparasitic activity on L. donovani: image-based intracellular assay in infected differentiated THP-1 cells. It counts as cell-based, Leishmania donovani. To be noted: L. donovani in PMA-differentiated THP-1 host cells, 3 days, normalized by controls; for Inhibition norm. inf. ratio IC50: number of infected host cells; for IC50: Leishmania donovani, 72 h, number of parasites in host cell cytoplasm, read-out: Inhibition norm. para. num. IC50. How it is done: All compounds isolated were tested against Trypanosoma cruzi and Leishmania donovani, using the liquid microdilution method. Madurastatins were not active against L. donovani at the highest concentration tested, showing IC50 values higher than 50 µM.
(§1) Human monocyte cell line THP-1 (ATCC TIB-202) was purchased from the American Type Culture Collection (ATCC). The assay for activity against L. donovani was performed as previously described. L. donovani MHOM/ET/67/HU3 was cultivated as promastigotes at 28 °C in M199 (Sigma-Aldrich, St. Louis, MO, USA) with 40 mM HEPES, 0.1 mM adenine, 0.0001% biotin, and 4.62 mM NaHCO3, supplemented with 10% heat-inactivated FBS and incubated 6 days before infection to enrich the proportion of metacyclic promastigotes. THP-1 was cultivated in RPMI medium (Thermo Fisher Scientific) supplemented with 10% heat-inactivated FBS and differentiated with 50 ng/mL of phorbol 12-myristate 13-acetate (PMA, Sigma-Aldrich) before infection. Purified L. donovani parasites were seeded with 1:20 infection ratio in 384-well plates and incubated for 24 h, then followed by the treatment of 4 μM amphotericin B (Sigma-Aldrich) as positive control, 0.5% DMSO as negative control, and tested samples. After additional incubation for 3 days at 37 °C, 5% CO2, the cells and parasites were fixed with 4% PFA and stained with 5 μM DRAQ5. Fluorescent images were acquired from each well using an automated confocal microscope (Operetta CLS) with a […] laser at 20× objective.
(§2) The acquired images were analyzed with Columbus software (v2.3) (PerkinElmer) to quantify cell numbers, parasites numbers, and infection ratio. Data were normalized by positive and negative controls. The activity of the tested samples was determined in terms of IC50 and CC50 calculated with XLfit software (v5) (IDBS, Boston, MA, USA). The quality of the assay data was assessed with Z’ factor, assay windows, and CV [37].

In a further data set the test system is U2OS cells. The data set is described as follows: Host cell cytotoxicity (cell ratio) in the T. cruzi assay. The settings on record: number of U2OS host cells in T. cruzi assay, 3 days. It is filed as cell-based, Human.
Excerpt: (§3) Human osteosarcoma cell line U2OS (ATCC HTB-96) and rhesus monkey kidney epithelial cell LLM-MK2 (ATCC CCL-7) were purchased from the American Type Culture Collection (ATCC, Manassas, VA, USA). T. cruzi Y strain was maintained as tissue culture trypomastigotes (TCT) by infection to LLC-MK2 cell line. The U2OS human cell was cultivated in DMEM-high-glucose media supplemented with 10% heat-inactivated fetal bovine serum (FBS, Thermo Fisher Scientific, Waltham, MA, USA). To visualize amastigote replication, U2OS cells were seeded in a 384-well plate (4 × 10^3 cells/well) and infected with 5 × 10^4 TCT parasites in DMEM-low-glucose media supplemented with 2% heat-inactivated FBS as previously described. The reference drug 400 μM of benznidazole (positive control), 0.5% DMSO (negative control), and the tested samples were treated on the day of assay and then incubated for 3 days at 37 °C, 5% CO2. After incubation was completed, the cells and parasites were fixed with 4% paraformaldehyde (PFA), and the DNA was stained with 5 μM DRAQ5 (Biostatus, Shepshed, Leicestershire, UK) followed by image acquisition using an automated confocal microscope (Operetta CLS, PerkinElmer, Waltham, MA, USA) with a […] laser at 20× objective.
as §2

The next data set deals with THP-1 cells. The data set is described as follows: Host cell cytotoxicity (cell ratio) in the L. donovani assay. It is filed as cell-based, Human. The settings on record: number of THP-1 host cells in L. donovani assay, 3 days. How it is done:
as §1, §2

In the next data set the test system is T. cruzi Y strain. The data set is described as follows: Antiparasitic activity on T. cruzi: image-based intracellular amastigote assay in infected U2OS cells. It counts as cell-based, Trypanosoma cruzi. To be noted: T. cruzi in U2OS host cells, 3 days, normalized by DMSO and benznidazole controls; for Inhibition norm. inf. ratio IC50: number of infected host cells; for IC50: Trypanosoma cruzi, 72 h, number of parasites in host cell cytoplasm, read-out: Inhibition norm. para. num. IC50. How it is done: as §3, with “All compounds isolated were tested against Trypanosoma cruzi and Leishmania donovani, using the liquid microdilution method. Madurastatins were not active against L. donovani at the highest concentration tested, showing IC50 values higher than 50 µM. […] Human” for “Human”, “objective. The acquired images were analyzed with Columbus software (v2.3) (PerkinElmer) to quantify cell numbers, parasites numbers, and infection ratio. Data were normalized by positive and negative controls. The activity of the tested samples was determined in terms of IC50 and CC50 calculated with XLfit software (v5) (IDBS, Boston, MA, USA). The quality of the assay data was assessed with Z’ factor, assay windows, and CV [37].” for “objective.”

A word on the IC50: it is the point on the concentration scale where inhibition reaches its midpoint. In the case of `C[C@@H]1N(C)[C@@H](CCCN(O)C(=O)CCNC(=O)CNC(=O)[C@H]2COC(c3ccccc3O)=N2)C(=O)N1[C@H]1CCCN(O)C1=O` [33-epi D1 (3), 33-epi-madurastatin D1], the “Inhibition norm. inf. ratio IC50” value (in data set [1]; with T. cruzi Y strain) was greater than 50 µM throughout. The IC50 was greater than 50 µM in data set [1] and 46.1 µM in the data set with T. cruzi Y strain. Moreover, the “Cell ratio (%) CC50” value in the data set with U2OS cells and in the data set on THP-1 cells was greater than 50 µM each time.
Turning to `CNC(CCCN(O)C(=O)CCNC(=O)CNC(=O)C1COC(c2ccccc2O)=N1)C(=O)NC1CCCN(O)C1=O` (stereo not drawn) [C1 (1), madurastatin C1], the “Inhibition norm. inf. ratio IC50” value (in data set [1]; with T. cruzi Y strain) was greater than 50 µM each time. For the same compound, the values for the IC50 (in data set [1]; in the data set with T. cruzi Y strain) were greater than 50 µM and 30.8 µM, respectively. The “Cell ratio (%) CC50” value in the data set with U2OS cells and in the data set on THP-1 cells was greater than 50 µM throughout.
As for `CC1N(C)C(CCCN(O)C(=O)CCNC(=O)CNC(=O)C2COC(c3ccccc3O)=N2)C(=O)N1C1CCCN(O)C1=O` (stereo not drawn) [D1 (4), madurastatin D1], the “Inhibition norm. inf. ratio IC50” value (in data set [1]; in the data set with T. cruzi Y strain) was greater than 50 µM in each case. Also, the results for the IC50 (in data set [1]; in the data set on T. cruzi Y strain) were greater than 50 µM and 27.2 µM, respectively. Moreover, the “Cell ratio (%) CC50” value in the data set with U2OS cells is recorded as 46.77 µM; in the data set on THP-1 cells, greater than 50 µM.
On to `CN1C(CCCN(O)C(=O)CCNC(=O)CNC(=O)C2COC(c3ccccc3O)=N2)C(=O)N(C2CCCN(O)C2=O)C1(C)C` (stereo not drawn) [D2 (5), madurastatin D2], for which the “Inhibition norm. inf. ratio IC50” value (in data set [1]; in the data set with T. cruzi Y strain) was greater than 50 µM each time. Besides, the IC50 in data set [1] is greater than 50 µM; in the data set on T. cruzi Y strain, 8.93 µM. Moreover, the “Cell ratio (%) CC50” value is on record as 24.74 µM with U2OS cells and greater than 50 µM in the data set with THP-1 cells.
With `CN1[C@@H](CCCN(O)C(=O)CCNC(=O)CNC(=O)[C@@H](CO)NC(=O)c2ccccc2O)C(=O)N([C@H]2CCCN(O)C2=O)C1(C)C` [H2 (2), madurastatin H2], the “Inhibition norm. inf. ratio IC50” value (in data set [1]; in the data set on T. cruzi Y strain) was greater than 50 µM throughout. For the same compound, the IC50 (in data set [1]; in the data set with T. cruzi Y strain) was greater than 50 µM in each case. Further, the “Cell ratio (%) CC50” value with U2OS cells and in the data set on THP-1 cells was greater than 50 µM each time.
